Data reported in patent US20260232578A1, “COMPOSITIONS AND METHODS FOR TRANSMUCOSAL ABSORPTION” (Tonix Pharma Limited, priority 2012, published 2026).
Structures can show the parent of a compound that is named as a salt.

Assay: Stress stability at 50° C., purity profile
Type: physicochemical
Method: In order to evaluate the stability of the formulations described above, prototype A, B, C, D were maintained under the 50° C. stress condition for 30 days.

[1] = T0, samples stored at room temperature
[2] = T15days, active ingredient without excipients

| Structure (SMILES) | Impurity 1 (Dibenzosuberenone, RT = about 56′) [1] | Impurity 2 (Carbinole, RT = about 6′) [1] | Impurity 4 (Amitriptyline, RT = about 15′) [1] | Total Impurities [1] [%] | Unknown 1 (RT = about 16′) [1] [%] | Unknown 2 (RT = about 17.5′) [1] | Unknown 3 (RT = about 7.5′) [1] | Impurity 1 (Dibenzosuberenone, RT = about 56′) [2] | Impurity 2 (Carbinole, RT = about 6′) [2] | Impurity 4 (Amitriptyline, RT = about 15′) [2] | Total Impurities [2] [%] | Unknown 1 (RT = about 16′) [2] | Unknown 2 (RT = about 17.5′) [2] [%] | Unknown 3 (RT = about 7.5′) [2] |
| --- | --- | --- | --- | --- | --- | --- | --- | --- | --- | --- | --- | --- | --- | --- |
| CN(C)CCC=C1c2ccccc2C=Cc2ccccc21 [Cyclobenzaprine HCl (Sifavitor)] | Absent | Absent | Absent | 0.020 | 0.020 | Absent | Absent | Absent | Absent | Absent | 0.019 | Absent | 0.019 | Absent |
| CN(C)CCC=C1c2ccccc2C=Cc2ccccc21 [Cyclobenzaprine HCl (Dipharma)] | Absent | Absent | Absent | 0.005 | 0.005 | Absent | 0.028% | Absent | Absent | Absent | 0.003 | Absent | 0.003 | 0.008% |
